Where no end group is shown, it is not given here. The star is where a group is joined. Biotin = O=C1N[C@H]2[C@H](CS[C@H]2CCCCC(=O)*)N1
Tests used:
[1] = test system: Heat shock cognate 71 kDa protein (HSPA8/HSC70); test: Avidin-agarose affinity chromatography of SH-SY5Y cell homogenate with biotin-TLQP-21, SDS-PAGE/SYPRO Ruby and MASCOT MS/MS identification; HSPA8; format: binding, human; conditions: fractions 4-5, control column without biotin-TLQP-21
Procedure: Portions (25 μl) of each elution fraction from avidin-agarose affinity chromatography were boiled in 2x Laemmli buffer and loaded to a 10% SDS-PAGE gel. Electrophoresis was carried out at 200V for 60 minutes. After completion, the gel was washed in dH2O for 10 minutes. […] The gel was then transferred to a clean staining container, and washed for 5 minutes with fixing solution followed by washing for 5 minutes in dH2O.Finally, the gel was imaged in a Molecular Imager Gel Doc system (Bio Rad, Hercules) using the highest sensitivity of the CCD camera (CoolSNAP HQ2, Roper Scientific) at a resolution of 1392 x 1040 pixels with 12 bit gray scale levels per pixel. […] Extracted peptides were analyzed by LC-MS/MS. […] Ionized peptides were detected in a Bruker Amazon ETD ion trap. Automated analysis of mass data was performed by Data Analysis 4.0 and BioTools 3.2 from Bruker Daltonik GmbH. Database search was done with the Mascot v2.3 search tool (Matrix Science) screening SwissProt (release 57.15). Searches were limited to human taxonomy selecting carbamidomethyl cysteine as a fixed modification and oxidized methionine as potential variable modification. […] All spectra and database results were scrutinized manually in details using the above software, especially in the case of identifications based on one peptide hit. […]

[2] = test system: HSPA8 on the surface of SH-SY5Y cells; test: Crosslinking of biotinylated TLQP-21 to live SH-SY5Y surface membrane proteins, avidin affinity, Western blot; format: binding, human; conditions: 50 μM biotin-TLQP-21, 1 mM Sulfo-EMCS, 1 hour, room temperature; versus control without peptide
Procedure: After electrophoresis, as described earlier, proteins were transferred onto PVDF membranes (Millipore, Bedford) using semi-dry method (Trans-blot SD semi-dry transfer cell, Biorad). The membranes were then blocked 5% BSA in TBS-T solution (Tris-buffered saline with 0.1% tween 20, pH = 7.6) for 1 hour at room temperature, and probed with anti-HSC70/HSPA8 (Abcam) antibody at 1:500 dilution. Anti-rabbit antibody (Dako) at a 1:2000 dilution was used as the secondary antibody. Subsequently, the membrane was incubated with Luminata Forte Western HRP substrate [Merck Millipore] for 5 minutes and developed using Hypercassette and Amersham hyperfilm (GE Healthcare).
SH-SY5Y cells were grown as described above until confluence. Culture medium was removed, cells were washed three times with cold PBS and incubated with 2 mL of PBS containing 1 mM Sulfo-EMCS with 50 μM biotin-TLQP-21 for 1 hour at room temperature. Control cells were incubated under the same conditions with the same reaction mixture lacking biotin-TLQP-21. The cross-linking reaction was stopped adding Tris-HCl, pH 7.8 to a final concentration 50 mM. Cells were washed twice with cold PBS and solubilized in lysis buffer (20 mM HEPES pH 7.4, 2 mM EGTA, 1 mM DTT, 1 mM sodium orthovanadate, 1% Triton X-100, 10% glycerol, 2 μM leupeptin, 400 μM PMSF, 50 μM β-glycerophosphate and 100 μg/ml aprotinin). […]

HSPA8 [3] = conditions: pooled fractions 4 and 5, anti-HSPA8 1:500, three replicates, versus control fractions
Procedure: A monomeric avidin column (Thermo Scientific) was washed with 8 ml PBS followed by addition of 6 ml (2 mM D-biotin in PBS, pH = 7.2) to block any non-reversible biotin binding sites. Regeneration buffer (0.1M glycine, pH 2.8, 12 ml) was added to remove biotin from the reversible binding sites followed by washing with 8 ml of PBS. One ml of 0.1 mM biotin-TLQP-21 was mixed with 900 μl of PBS and 100 μl of 1mM TCEP and the resulting solution was applied to the column, which was incubated for an hour at room temperature. The column was then washed with 12 ml of PBS. A 2ml solution containing 700 μl of SH-SY5Y cell lysate with a protein concentration of 10μg/μl was diluted with 1.3 ml of PBS and applied then to the column. The column was then washed with 12 ml of PBS, and eluted with 10 ml of blocking/elution buffer. Fractions of 500 μl were collected and kept on ice until further use for analysis by SYPRO® Ruby Protein Gel Stain (Lonza), and Western blot. As a control, cell lysate solution was added under the same conditions to a column to which biotin-TLQP-21 was not attached.
After electrophoresis, as described earlier, proteins were transferred onto PVDF membranes (Millipore, Bedford) using semi-dry method (Trans-blot SD semi-dry transfer cell, Biorad). […]

[4] = test system: complement component-3a receptor 1 (C3AR1); conditions: ref [27]–[28]; cited from earlier work
Source text: (§1) Remarkably, despite the large volume of data on effects of VGF-derived peptides, very little is known about their receptors, downstream signaling routes and mechanisms of action. […] We reasoned that the neuroblastoma cell line SH-SY5Y would be a good model to study receptors and downstream mechanisms of VGF-derived peptides, given the substantial expression and secrete levels of VGF and VGF-derived ...

[5] = test system: globular head of the complement component C1q receptor (gC1qR); conditions: ref [29]; cited from earlier work
Source text: as §1

HSPA8 [6] = target: T1, HSPA8 (Homo sapiens, UniProt P11142); conditions: ref [45]; read-out: affinity of HSPA8 for the phosphorylated peptide P140; cited from earlier work
T1 construct: HSPA8 immobilization was performed by adding 15 μl of 25 μg/ml of protein in 20 mM sodium acetate buffer
T1 sequence (P11142 whole entry): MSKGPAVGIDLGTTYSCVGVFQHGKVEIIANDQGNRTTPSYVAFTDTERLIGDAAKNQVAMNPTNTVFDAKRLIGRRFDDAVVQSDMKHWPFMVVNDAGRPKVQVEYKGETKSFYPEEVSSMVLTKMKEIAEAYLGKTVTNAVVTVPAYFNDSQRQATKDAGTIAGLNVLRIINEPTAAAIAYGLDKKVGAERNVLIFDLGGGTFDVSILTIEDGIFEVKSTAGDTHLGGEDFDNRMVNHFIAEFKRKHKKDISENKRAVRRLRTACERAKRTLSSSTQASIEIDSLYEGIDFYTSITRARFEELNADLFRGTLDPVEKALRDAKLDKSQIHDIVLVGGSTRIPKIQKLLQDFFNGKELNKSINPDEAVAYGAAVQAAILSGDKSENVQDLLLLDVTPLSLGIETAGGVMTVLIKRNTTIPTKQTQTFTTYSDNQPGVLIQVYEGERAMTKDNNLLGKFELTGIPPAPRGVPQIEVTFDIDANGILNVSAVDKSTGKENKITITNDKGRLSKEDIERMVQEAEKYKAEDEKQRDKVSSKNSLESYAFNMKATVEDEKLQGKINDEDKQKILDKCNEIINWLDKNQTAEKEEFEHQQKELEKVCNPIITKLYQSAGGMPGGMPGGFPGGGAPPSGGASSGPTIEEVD

Biotin-TLQPPSALRRRHYHHALPPSRC [biotin-TLQP-21, amino-terminally biotinylated human TLQP-21 containing an extra cysteine residue at the C-terminus]
~70 kDa protein bound on biotin-TLQP-21 column (SYPRO Ruby) [1]: A ~70 kDa protein was bound
~70 kDa protein bound on biotin-TLQP-21 column (SYPRO Ruby) ([1]; listed as biotinyl-TLQP-21): a protein band of ∼70 kDa was detected by SYPRO Ruby staining
cross-linking to HSPA8 on live cell surface [2]: A positive ~70kDa band corresponding to HSPA8 was detected
Western blot detection of HSPA8 in eluate of biotin-TLQP-21 column (HSPA8 [3]): confirmed the ~70 kDa protein as HSPA8 but not in the controls

TLQPPASSRRRHFHHALPPAR [murine TLQP-21, mouse TLQP-21]
C3AR1 as receptor [4]: identified as potential receptors
gC1qR as receptor [5]: identified as potential receptors

P140: phosphorylated peptide P140, corresponds to a portion of the spliceosomal U1-70K snRNP protein, recognized by lupus CD4+ T cells (RIHMVYSKRSGKPRGYAFIEY; phospho-Ser140 (10th residue of the peptide); P140/Lupuzor is conventionally U1-70K (SNRNP70) 131-151)
Kd (HSPA8 [6]): ~7 µM

Reference: article PMC5608341, “The human VGF-derived bioactive peptide TLQP-21 binds heat shock 71 kDa protein 8 (HSPA8)on the surface of SH-SY5Y cells” (PLoS ONE, 2017)
